Where “and” joins values, the source holds several entries; their conditions need not be identical. Equal entries are not always repeated. Numbers after ± are expanded uncertainties.
O=C(C(F)(F)C(F)(F)F)C(F)(C(F)(F)F)C(F)(F)F [dodecafluoro-2-methylpentan-3-one]
Settings | thermal conductivity
402.37 K, 306 kPa, Gas, hot wire | 0.0201 ± 0.00095 W/m/K
402.38 K, 27 kPa, Gas, hot wire | 0.01858 ± 0.00088 W/m/K
402.38 K, 306 kPa, Gas, hot wire | 0.02016 ± 0.00095 W/m/K
402.44 K, 159 kPa, Gas, hot wire | 0.01917 ± 0.0009 W/m/K and 0.01915 ± 0.0009 W/m/K
402.45 K, 445 kPa, Gas, hot wire | 0.02064 ± 0.00097 W/m/K
402.47 K, 444 kPa, Gas, hot wire | 0.02039 ± 0.00096 W/m/K
402.49 K, 306 kPa, Gas, hot wire | 0.02022 ± 0.00095 W/m/K and 0.02027 ± 0.00095 W/m/K
402.5 K, 27 kPa, Gas, hot wire | 0.01866 ± 0.00088 W/m/K and 0.01864 ± 0.00088 W/m/K
402.57 K, 160 kPa, Gas, hot wire | 0.01916 ± 0.0009 W/m/K
402.57 K, 161 kPa, Gas, hot wire | 0.0192 ± 0.0009 W/m/K
402.57 K, 444 kPa, Gas, hot wire | 0.02075 ± 0.00098 W/m/K
402.59 K, 443 kPa, Gas, hot wire | 0.02053 ± 0.00097 W/m/K
402.62 K, 305 kPa, Gas, hot wire | 0.02031 ± 0.00096 W/m/K and 0.02029 ± 0.00096 W/m/K
402.63 K, 27 kPa, Gas, hot wire | 0.01867 ± 0.00088 W/m/K
402.64 K, 27 kPa, Gas, hot wire | 0.01862 ± 0.00088 W/m/K
402.68 K, 835 kPa, Gas, transient hot wire | 0.02013 ± 0.0012 W/m/K
402.69 K, 441 kPa, Gas, hot wire | 0.02089 ± 0.00099 W/m/K
402.69 K, 442 kPa, Gas, hot wire | 0.02089 ± 0.00099 W/m/K
402.69 K, 835 kPa, Gas, transient hot wire | 0.02007 ± 0.0012 W/m/K
402.71 K, 162 kPa, Gas, hot wire | 0.01917 ± 0.0009 W/m/K
402.71 K, 163 kPa, Gas, hot wire | 0.01926 ± 0.00091 W/m/K
402.74 K, 305 kPa, Gas, hot wire | 0.02049 ± 0.00096 W/m/K
402.74 K, 747 kPa, Gas, transient hot wire | 0.01986 ± 0.0012 W/m/K
402.74 K, 748 kPa, Gas, transient hot wire | 0.01986 ± 0.0012 W/m/K
402.75 K, 305 kPa, Gas, hot wire | 0.02035 ± 0.00096 W/m/K
402.78 K, 27 kPa, Gas, hot wire | 0.01867 ± 0.00088 W/m/K and 0.01858 ± 0.00088 W/m/K
402.81 K, 608 kPa, Gas, transient hot wire | 0.01959 ± 0.0012 W/m/K
402.81 K, 609 kPa, Gas, transient hot wire | 0.01955 ± 0.0012 W/m/K
402.85 K, 164 kPa, Gas, hot wire | 0.01925 ± 0.00091 W/m/K and 0.01927 ± 0.00091 W/m/K
402.87 K, 447 kPa, Gas, transient hot wire | 0.01955 ± 0.0012 W/m/K
402.87 K, 448 kPa, Gas, transient hot wire | 0.01962 ± 0.0012 W/m/K
402.87 K, 836 kPa, Gas, transient hot wire | 0.02025 ± 0.0013 W/m/K
402.88 K, 836 kPa, Gas, transient hot wire | 0.0203 ± 0.0013 W/m/K
402.91 K, 746 kPa, Gas, transient hot wire | 0.01994 ± 0.0012 W/m/K
402.92 K, 307 kPa, Gas, transient hot wire | 0.01967 ± 0.0012 W/m/K
402.92 K, 746 kPa, Gas, transient hot wire | 0.01998 ± 0.0012 W/m/K
402.93 K, 27 kPa, Gas, hot wire | 0.01857 ± 0.00088 W/m/K and 0.01866 ± 0.00088 W/m/K
403 K, 607 kPa, Gas, transient hot wire | 0.01962 ± 0.0012 W/m/K and 0.01975 ± 0.0012 W/m/K
403.05 K, 836 kPa, Gas, transient hot wire | 0.02051 ± 0.0013 W/m/K
403.06 K, 836 kPa, Gas, transient hot wire | 0.02049 ± 0.0013 W/m/K
403.07 K, 447 kPa, Gas, transient hot wire | 0.01962 ± 0.0012 W/m/K
403.08 K, 446 kPa, Gas, transient hot wire | 0.01959 ± 0.0012 W/m/K
403.1 K, 744 kPa, Gas, transient hot wire | 0.02004 ± 0.0012 W/m/K
403.1 K, 745 kPa, Gas, transient hot wire | 0.02014 ± 0.0012 W/m/K
403.12 K, 306 kPa, Gas, transient hot wire | 0.01974 ± 0.0012 W/m/K
403.12 K, 307 kPa, Gas, transient hot wire | 0.01974 ± 0.0012 W/m/K
403.2 K, 605 kPa, Gas, transient hot wire | 0.01971 ± 0.0012 W/m/K
403.21 K, 606 kPa, Gas, transient hot wire | 0.01981 ± 0.0012 W/m/K
403.25 K, 836 kPa, Gas, transient hot wire | 0.02071 ± 0.0013 W/m/K
403.25 K, 837 kPa, Gas, transient hot wire | 0.02072 ± 0.0013 W/m/K
403.28 K, 445 kPa, Gas, transient hot wire | 0.01961 ± 0.0012 W/m/K
403.3 K, 445 kPa, Gas, transient hot wire | 0.01958 ± 0.0012 W/m/K
403.33 K, 744 kPa, Gas, transient hot wire | 0.02022 ± 0.0013 W/m/K
403.34 K, 306 kPa, Gas, transient hot wire | 0.01976 ± 0.0012 W/m/K
403.34 K, 743 kPa, Gas, transient hot wire | 0.02024 ± 0.0013 W/m/K
403.35 K, 306 kPa, Gas, transient hot wire | 0.01972 ± 0.0012 W/m/K
403.41 K, 605 kPa, Gas, transient hot wire | 0.01984 ± 0.0012 W/m/K
403.42 K, 604 kPa, Gas, transient hot wire | 0.01984 ± 0.0012 W/m/K
403.51 K, 444 kPa, Gas, transient hot wire | 0.01967 ± 0.0012 W/m/K
403.53 K, 742 kPa, Gas, transient hot wire | 0.02037 ± 0.0013 W/m/K and 0.02041 ± 0.0013 W/m/K
403.54 K, 443 kPa, Gas, transient hot wire | 0.01965 ± 0.0012 W/m/K
403.57 K, 305 kPa, Gas, transient hot wire | 0.01974 ± 0.0012 W/m/K and 0.01978 ± 0.0012 W/m/K
403.63 K, 603 kPa, Gas, transient hot wire | 0.01991 ± 0.0012 W/m/K
403.64 K, 602 kPa, Gas, transient hot wire | 0.01991 ± 0.0012 W/m/K
403.75 K, 442 kPa, Gas, transient hot wire | 0.01972 ± 0.0012 W/m/K
403.76 K, 442 kPa, Gas, transient hot wire | 0.01971 ± 0.0012 W/m/K
403.81 K, 305 kPa, Gas, transient hot wire | 0.01987 ± 0.0012 W/m/K and 0.01988 ± 0.0012 W/m/K
416.35 K, 1171 kPa, Liquid, transient hot wire | 0.03902 ± 0.00082 W/m/K and 0.03885 ± 0.00082 W/m/K
416.51 K, 1171 kPa, Liquid, transient hot wire | 0.03892 ± 0.00082 W/m/K and 0.03904 ± 0.00082 W/m/K
416.67 K, 1170 kPa, Liquid, transient hot wire | 0.03901 ± 0.00082 W/m/K
416.68 K, 1170 kPa, Liquid, transient hot wire | 0.0389 ± 0.00082 W/m/K
416.69 K, 596 kPa, Gas, hot wire | 0.0223 ± 0.001 W/m/K
416.7 K, 595 kPa, Gas, hot wire | 0.02228 ± 0.0014 W/m/K
416.78 K, 2205 kPa, Liquid, transient hot wire | 0.04062 ± 0.00085 W/m/K
416.79 K, 2206 kPa, Liquid, transient hot wire | 0.04049 ± 0.00085 W/m/K
416.8 K, 24840 kPa, Liquid, transient hot wire | 0.05568 ± 0.0011 W/m/K
416.81 K, 24844 kPa, Liquid, transient hot wire | 0.05562 ± 0.0011 W/m/K
416.81 K, 50957 kPa, Liquid, transient hot wire | 0.06585 ± 0.0014 W/m/K
416.82 K, 50950 kPa, Liquid, transient hot wire | 0.06577 ± 0.0014 W/m/K
416.86 K, 1170 kPa, Liquid, transient hot wire | 0.03904 ± 0.00082 W/m/K
416.87 K, 1131 kPa, Gas, transient hot wire | 0.02258 ± 0.00075 W/m/K
416.87 K, 1170 kPa, Liquid, transient hot wire | 0.03905 ± 0.00082 W/m/K
416.88 K, 16295 kPa, Liquid, transient hot wire | 0.0514 ± 0.0011 W/m/K
416.89 K, 590 kPa, Gas, hot wire | 0.02234 ± 0.0014 W/m/K

From the NIST ThermoML archive (doi:10.1021/acs.jced.8b00132)
